Reference: article PMC12257413, “Discovery of a Novel sp^3‑Rich M1 Positive Allosteric Modulators (PAMs) Chemotype via Scaffold Hopping” (ACS Medicinal Chemistry Letters, 2025)

Assay: Brain to plasma ratio (PK/PBL cassette)
Type: in vivo
Conditions: rat
Procedure: In vivo DMPK experimental:
Determination of brain to plasma ratio:
Sample Analysis: Concentrations in plasma and brain homogenates were quantified by liquid chromatography tandem mass spectrometry (LC-MS/MS). Whole brains were homogenized in 3 mL of 70:30 IPA:water in a mini bead beater for 3 min, and centrifuged at 3,500 g for 5 min. 5 uL of the supernatant was diluted in 15 uL of blank plasma for quantification of the analytes. Plasma samples were centrifuged at 3,500 g for 5 min. A standard curve was generated by diluting the analytes DMSO stocks with blank plasma to obtain a final concentration of 10,000 ng/ml followed by a serial dilution down to 0.5 ng/ml. […]
Plasma and brain tissue samples originating from in vivo studies were analyzed by electrospray ionization using an AB Sciex Q-TRAP 5500 (Foster City, CA) that was coupled to a Shimadzu LC-20AD pump (Columbia, MD) and a Leap Technologies CTC PAL auto-sampler (Carrboro, NC). […]
transitioning to 10% B over 0.05 min. […] All data were analyzed using AB Sciex Analyst 1.5.1 software.
Brain plasma concentration ratio (Kp) was calculated by dividing brain concentration by plasma concentration for each animal. Unbound brain to unbound plasma concentration ratio (Kp,uu) is calculated using the following formula: Kp,uu = (Brain ng/g x brain fu)/(plasma ng/ml x plasma fu).

| SMILES | Kp |
| --- | --- |
| Cn1cc(-c2ccc(Cc3cc(C(=O)N[C@H]4CCCC[C@@H]4O)nn3C3CCCC3)cc2)cn1 [17k] | 0.63 |
| Cn1cc(-c2ccc(Cc3cc(C(=O)N[C@H]4CCOC[C@@H]4O)nn3C3CCCC3)cc2)cn1 [17g] | 0.12 |
